In PMC8991960, “A Bivalent Activatable Fluorescent Probe for Screening and Intravital Imaging of Chemotherapy‐Induced Cancer Cell Death” (Angewandte Chemie (International Ed. in English), 2021):

Test system: breast cancer cells (MMTV-PyMT, MDA-MB231, MCF7)
Assay: Dose-dependency study with Apotracker Red and CellTrace Violet
Assay type: cell-based, mouse and human
Settings: 1 to 100 µM
Procedure: First, all drugs were tested in the 8 different cell lines to determine the percentages of Apotracker Red‐stained apoptotic cells compared to no treatment (Figure 3 c; Figure S8). […] From this screen, we decided to select 5 drugs with potent pro‐apoptotic response in breast cancer, the most diagnosed cancer worldwide.[25] […] From group 2, we selected cyclophosphamide, tamoxifen, and 5‐fluorouracil as pro‐apoptotic molecules. […] All 5 drugs were tested at multiple concentrations (from 1 to 100 μM) and with incubation times up to 48 h to examine whether drugs could block cell proliferation at late stages (Figures S9–S13).
Figure 4 Apotracker Red detects dose‐dependent chemotherapeutic‐induced apoptosis in mouse and human breast cancer cell lines. Cells were plated with 1 μM CV, treated with increasing concentrations (0, 1, 3, 10, 30 and 100 μM) of selected drugs for 48 h, and stained with Apotracker Red (150 nM) before data acquisition. Drugs: tamoxifen (beige), cisplatin (black), 5‐fluorouracil (green), gemcitabine (pink) and cyclophosphamide (red). Data presented as mean±SEM of 3 independent experiments.
Figure S9. Flow cytometry analysis of cisplatin in different breast cancer cell lines.
Representative flow cytometric plots (from three independent experiments) of MMTV-PyMT cells (a), MDA-MB231 cells (b) and MCF7 cells (c) after treatment with increasing concentrations of cisplatin for 48 h. Cells were stained on day 0 with CellTraceTM Violet (1 µ M) and with Apotracker Red (150 nM) before data acquisition.
(1 picture or pasted object on this page, not shown here)
Edinburgh. Human peripheral blood neutrophils were isolated as previously described.[3] […]
were centrifuged (300 g, 5 min, r.t.), washed once with PBS before addition of 0.05% Trypsin, 0.02% ethylenediaminetetraacetic acid (EDTA) in Hank’s balanced salt solution (HBSS) and incubation at 37°C for 5 min. […] Histograms and mean fluorescence intensities of […]

Question: What does the source list for `N.N.[Cl][Pt][Cl]` [cisplatin]?
Answer: Percentages of Apotracker Red staining, dose-dependency study (48 h, Apotracker Red 150 nM, 3 independent experiments): highest percentages of Apotracker Red staining across all breast cancer cells; Ratios of proliferation blockage, dose-dependency study (up to 48 h, CellTrace Violet 1 µM): highest ratios of proliferation blockage
